System: transgenic maize plants
Assay: Detection of the herbicide tolerance of the transgenic maize plants
Type: in vivo
Conditions: for The grade of pesticide damage/plant: 0 / The grade of pesticide damage/plant: 1 / The grade of pesticide damage/plant: 2 / The grade of pesticide damage/plant: 3: 7 DAT
Description: The transformed Arabidopsis thaliana T1 plants were initially selected using glufosinate herbicide. The Arabidopsis thaliana T1 plants (PPOA-01) into which the PPOA-01 nucleotide sequence was introduced, the Arabidopsis thaliana T1 plants (PPOB-01) into which the PPOB-01 nucleotide sequence was introduced, the Arabidopsis thaliana T1 plants (PPOC-01) into which the PPOC-01 nucleotide sequence was introduced, the Arabidopsis thaliana T1 plants (PPOD-01) into which the PPOD-01 nucleotide sequence was introduced, the Arabidopsis thaliana T1 plants (PPOE-01) into which the PPOE-01 nucleotide sequence was introduced, the Arabidopsis thaliana T1 plants (PPOF-01) into which the PPOF-01 nucleotide sequence was introduced, the Arabidopsis thaliana T1 plants (PPO-AP-01) into which the PPO-AP-01 nucleotide sequence was introduced, and the Arabidopsis thaliana T1 plants (control vector) into which the control vector was introduced, the wild-type Arabidopsis thaliana plants (CK) (with 24 plants being included in each genotype) (18 days after sowing) were sprayed with saflufenacil at three concentrations (25 g ai/ha (one-fold field concentration, 1×), 100 g ai/ha (four-fold field concentration, 4×), and 0 g ai/ha (water, 0×)), oxyfluorfen at three concentrations (180 g ai/ha (one-fold field concentration, 1×), 720 g ai/ha (four-fold field concentration, 4×), and 0 g ai/ha (water, 0×)), and flumioxazin at three concentrations (60 g ai/ha (one-fold field concentration, 1×), 240 g ai/ha (four-fold field concentration, 4×), and 0 g ai/ha (water, 0×) to determine the tolerance of Arabidopsis thaliana to the herbicides. After 7 days of spraying (7 DAT), the damage level of each plant caused by the herbicide was evaluated according to the average of the damage levels (%) of plants (the average of the damage levels (%) of plants=the injured leaf area/the total leaf area×100%), i.e., the grade of pesticide damage: grade 0 means that the growth status of plants is essentially consistent with those sprayed with the blank solvent (water); grade 1 means that the average of the damage levels of plants is less than 10%; grade 2 means that the average of the damage levels of plants is greater than 10%; and grade 3 means that the average of the damage levels of plants is 100%. The plants having a growth status falling within grades 0 and 1 are classified as highly resistant plants; those having a growth status falling within grade 2 are classified as poorly resistant plants; and those having a growth status falling within grade 3 are classified as non-resistant plants.
The maize plants into which the PPOA-02 nucleotide sequence was introduced, the maize plants into which the PPOB-02 nucleotide sequence was introduced, the maize plants into which the PPOC-02 nucleotide sequence was introduced, the maize plants into which the PPOD-02 nucleotide sequence was introduced, the maize plants into which the PPOE-02 nucleotide sequence was introduced, the maize plants into which the PPOF-02 nucleotide sequence was introduced, the maize plants into which the PPO-AP-02 nucleotide sequence was introduced, the maize plants (control vector) into which the control vector was introduced, and the wild-type maize plants (CK) (with 16 plants being included in each genotype) (18 days after sowing) were taken and sprayed with saflufenacil at three concentrations (50 g ai/ha (two-fold field concentration, 2×), 100 g ai/ha (four-fold field concentration, 4×), and 0 g ai/ha (water, 0×)), oxyfluorfen at three concentrations (360 g ai/ha (two-fold field concentration, 2×), 720 g ai/ha (four-fold field concentration, 4×), and 0 g ai/ha (water, 0×), and flumioxazin at three concentrations (120 g ai/ha (two-fold field concentration, 2×), 240 g ai/ha (four-fold field concentration, 4×), and 0 g ai/ha (water, 0×) to determine the tolerance of maize plants to the herbicides. […]

[1] = genotype Control vector, 360 g ai/ha
[2] = genotype Control vector, 720 g ai/ha
[3] = genotype PPO-AP-02, 360 g ai/ha
[4] = genotype PPO-AP-02, 720 g ai/ha

In the case of `CCOc1cc(Oc2ccc(C(F)(F)F)cc2Cl)ccc1[N+](=O)[O-]` [oxyfluorfen, 2-chloro-1-(3-ethoxy-4-nitrophenoxy)-4-trifluoromethylbenzene], the “The grade of pesticide damage/plant: 0” value (genotype CK, 360 g ai/ha) is reported as 0 plant, the “The grade of pesticide damage/plant: 1” value (genotype CK, 360 g ai/ha) is reported as 0 plant and the “The grade of pesticide damage/plant: 2” value (genotype CK, 360 g ai/ha) is reported as 0 plant. For the same compound, the “The grade of pesticide damage/plant: 3” value (genotype CK, 360 g ai/ha) was 16 plant, the “The grade of pesticide damage/plant: 0” value (genotype CK, 720 g ai/ha) was 0 plant and the “The grade of pesticide damage/plant: 1” value (genotype CK, 720 g ai/ha) was 0 plant. The “The grade of pesticide damage/plant: 2” value (genotype CK, 720 g ai/ha) was 0 plant, the “The grade of pesticide damage/plant: 3” value (genotype CK, 720 g ai/ha) was 16 plant and the “The grade of pesticide damage/plant: 0” value [1] was 0 plant. For the same compound, the “The grade of pesticide damage/plant: 1” value [1] was 0 plant, the “The grade of pesticide damage/plant: 2” value [1] was 0 plant and the “The grade of pesticide damage/plant: 3” value [1] was 16 plant. For the same compound, the “The grade of pesticide damage/plant: 0” value [2] was 0 plant, the “The grade of pesticide damage/plant: 1” value [2] was 0 plant and the “The grade of pesticide damage/plant: 2” value [2] was 0 plant. The “The grade of pesticide damage/plant: 3” value [2] was 16 plant, the “The grade of pesticide damage/plant: 0” value [3] was 0 plant and the “The grade of pesticide damage/plant: 1” value [3] was 0 plant. The “The grade of pesticide damage/plant: 2” value [3] was 8 plant, the “The grade of pesticide damage/plant: 3” value [3] was 8 plant and the “The grade of pesticide damage/plant: 0” value [4] was 0 plant. For the same compound, the “The grade of pesticide damage/plant: 1” value [4] was 0 plant, the “The grade of pesticide damage/plant: 2” value [4] was 0 plant and the “The grade of pesticide damage/plant: 3” value [4] was 16 plant. The “tolerance to the herbicide (in words)” value (genotype PPO-AP-02, four-fold field concentration) was “no tolerance”, the “share of the plants that exhibited no tolerance” value (genotype PPO-AP-02, two-fold field concentration) was “about 50%” and the “The grade of pesticide damage/plant: 0” value (genotype PPOA-02, 360 g ai/ha) was 16 plant. The “The grade of pesticide damage/plant: 1” value (genotype PPOA-02, 360 g ai/ha) was 0 plant, the “The grade of pesticide damage/plant: 2” value (genotype PPOA-02, 360 g ai/ha) was 0 plant and the “The grade of pesticide damage/plant: 3” value (genotype PPOA-02, 360 g ai/ha) was 0 plant. The “The grade of pesticide damage/plant: 0” value (genotype PPOA-02, 720 g ai/ha) was 16 plant, the “The grade of pesticide damage/plant: 1” value (genotype PPOA-02, 720 g ai/ha) was 0 plant and the “The grade of pesticide damage/plant: 2” value (genotype PPOA-02, 720 g ai/ha) was 0 plant. For the same compound, the “The grade of pesticide damage/plant: 3” value (genotype PPOA-02, 720 g ai/ha) was 0 plant, the “The grade of pesticide damage/plant: 0” value (genotype PPOB-02, 360 g ai/ha) was 16 plant and the “The grade of pesticide damage/plant: 1” value (genotype PPOB-02, 360 g ai/ha) was 0 plant. The “The grade of pesticide damage/plant: 2” value (genotype PPOB-02, 360 g ai/ha) was 0 plant, the “The grade of pesticide damage/plant: 3” value (genotype PPOB-02, 360 g ai/ha) was 0 plant and the “The grade of pesticide damage/plant: 0” value (genotype PPOB-02, 720 g ai/ha) was 16 plant. The “The grade of pesticide damage/plant: 1” value (genotype PPOB-02, 720 g ai/ha) was 0 plant, the “The grade of pesticide damage/plant: 2” value (genotype PPOB-02, 720 g ai/ha) was 0 plant and the “The grade of pesticide damage/plant: 3” value (genotype PPOB-02, 720 g ai/ha) was 0 plant. The “The grade of pesticide damage/plant: 0” value (genotype PPOC-02, 360 g ai/ha) was 16 plant, the “The grade of pesticide damage/plant: 1” value (genotype PPOC-02, 360 g ai/ha) was 0 plant and the “The grade of pesticide damage/plant: 2” value (genotype PPOC-02, 360 g ai/ha) was 0 plant. For the same compound, the “The grade of pesticide damage/plant: 3” value (genotype PPOC-02, 360 g ai/ha) was 0 plant, the “The grade of pesticide damage/plant: 0” value (genotype PPOC-02, 720 g ai/ha) was 16 plant and the “The grade of pesticide damage/plant: 1” value (genotype PPOC-02, 720 g ai/ha) was 0 plant. The “The grade of pesticide damage/plant: 2” value (genotype PPOC-02, 720 g ai/ha) was 0 plant, the “The grade of pesticide damage/plant: 3” value (genotype PPOC-02, 720 g ai/ha) was 0 plant and the “The grade of pesticide damage/plant: 0” value (genotype PPOD-02, 360 g ai/ha) was 16 plant. For the same compound, the “The grade of pesticide damage/plant: 1” value (genotype PPOD-02, 360 g ai/ha) was 0 plant, the “The grade of pesticide damage/plant: 2” value (genotype PPOD-02, 360 g ai/ha) was 0 plant and the “The grade of pesticide damage/plant: 3” value (genotype PPOD-02, 360 g ai/ha) was 0 plant. The “The grade of pesticide damage/plant: 0” value (genotype PPOD-02, 720 g ai/ha) was 16 plant, the “The grade of pesticide damage/plant: 1” value (genotype PPOD-02, 720 g ai/ha) was 0 plant and the “The grade of pesticide damage/plant: 2” value (genotype PPOD-02, 720 g ai/ha) was 0 plant. For the same compound, the “The grade of pesticide damage/plant: 3” value (genotype PPOD-02, 720 g ai/ha) was 0 plant, the “The grade of pesticide damage/plant: 0” value (genotype PPOE-02, 360 g ai/ha) was 16 plant and the “The grade of pesticide damage/plant: 1” value (genotype PPOE-02, 360 g ai/ha) was 0 plant. The “The grade of pesticide damage/plant: 2” value (genotype PPOE-02, 360 g ai/ha) was 0 plant, the “The grade of pesticide damage/plant: 3” value (genotype PPOE-02, 360 g ai/ha) was 0 plant and the “The grade of pesticide damage/plant: 0” value (genotype PPOE-02, 720 g ai/ha) was 15 plant. For the same compound, the “The grade of pesticide damage/plant: 1” value (genotype PPOE-02, 720 g ai/ha) was 1 plant, the “The grade of pesticide damage/plant: 2” value (genotype PPOE-02, 720 g ai/ha) was 0 plant and the “The grade of pesticide damage/plant: 3” value (genotype PPOE-02, 720 g ai/ha) was 0 plant. For the same compound, the “The grade of pesticide damage/plant: 0” value (genotype PPOF-02, 360 g ai/ha) was 16 plant, the “The grade of pesticide damage/plant: 1” value (genotype PPOF-02, 360 g ai/ha) was 0 plant and the “The grade of pesticide damage/plant: 2” value (genotype PPOF-02, 360 g ai/ha) was 0 plant. For the same compound, the “The grade of pesticide damage/plant: 3” value (genotype PPOF-02, 360 g ai/ha) was 0 plant, the “The grade of pesticide damage/plant: 0” value (genotype PPOF-02, 720 g ai/ha) was 16 plant and the “The grade of pesticide damage/plant: 1” value (genotype PPOF-02, 720 g ai/ha) was 0 plant. For the same compound, the “The grade of pesticide damage/plant: 2” value (genotype PPOF-02, 720 g ai/ha) was 0 plant, the “The grade of pesticide damage/plant: 3” value (genotype PPOF-02, 720 g ai/ha) was 0 plant and the “tolerance to the herbicide (in words)” value (genotypes PPOA-02 to PPOF-02, four-fold field concentration) was “high-resistant tolerance”. For the same compound, the “tolerance to the herbicide (in words)” value (genotypes PPOA-02 to PPOF-02, two-fold field concentration) was “high-resistant tolerance”.

Source: patent US20250275540A1, “USE OF PROTOPORPHYRINOGEN OXIDASE” (BEIJING DABEINONG BIOTECHNOLOGY CO., LTD., priority 2022, published 2025)
